{"source": "patent US9828385B2", "about": "“Spiro-oxazolones” (Hoffmann-La Roche Inc., priority 2014, dated 2017)", "data": [{"biological_target": "T1, human V1a receptor (Homo sapiens, UniProt P37288)", "T1 construct": "expressed in transfected cells; host or cells: HEK293 cells, transiently transfected; cell membranes", "T1 sequence (P37288 whole entry)": "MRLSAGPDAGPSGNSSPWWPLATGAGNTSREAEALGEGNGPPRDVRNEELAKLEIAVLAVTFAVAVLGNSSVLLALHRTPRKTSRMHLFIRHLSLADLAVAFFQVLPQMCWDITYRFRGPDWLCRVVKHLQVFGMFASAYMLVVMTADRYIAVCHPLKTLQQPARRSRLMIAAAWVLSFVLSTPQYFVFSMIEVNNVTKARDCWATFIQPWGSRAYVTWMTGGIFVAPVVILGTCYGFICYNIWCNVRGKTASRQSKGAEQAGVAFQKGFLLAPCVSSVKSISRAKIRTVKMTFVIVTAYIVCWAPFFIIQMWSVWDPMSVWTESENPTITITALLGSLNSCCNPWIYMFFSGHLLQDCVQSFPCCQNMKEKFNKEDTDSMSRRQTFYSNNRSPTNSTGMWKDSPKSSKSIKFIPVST", "test": "human V1a receptor binding studies (3H-Vasopressin, SPA beads)", "settings": "membranes of HEK293 cells transiently transfected with human V1a receptor, Ki by Cheng-Prussoff from IC50, read-out: pKi hV1a (converted)", "method_in_brief": "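Membranes from transiently transfected HEK293 cells expressing cloned human V1a receptor, on yttrium silicate SPA beads, competed against 4 nM 3H-vasopressin (added stock concentration) in Tris buffer with NaCl, KCl, CaCl2, MgCl2 for 1 h at room temperature. Nonspecific binding with cold vasopressin; IC50 by nonlinear fit, Ki via Cheng-Prusoff.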", "units": {"Ki": "nM"}, "values": [{"smiles": "CC(C)(C)[Si](C)(C)OCC1=CCC2(C1)OC(N1CCC3(CC1)OCc1ccccc13)=NC2=O", "note": "(centres unmarked) [Example 118, 7-({[tert-Butyl(dimethyl)silyl]oxy}methyl)-2-(1′H,3H-spiro[2-benzofuran-1,4′-piperidin]-1′-yl)-1-oxa-3-azaspiro[4.4]nona-2,7-dien-4-one]", "Ki": 316}, {"smiles": "O=C1N=C(N2CCC3(CC2)OCc2ccccc23)OC12CC=C(CO)C2", "note": "(centres unmarked) [Example 119, 7-(Hydroxymethyl)-2-(3H-spiro[isobenzofuran-1,4′-piperidine]-1′-yl)-1-oxa-3-azaspiro[4.4]nona-2,7-dien-4-one]", "Ki": 1000}, {"smiles": "O=C1N=C(N2CCC3(CC2)OCc2ccccc23)OC12CCCCC2", "note": "[Example 123, 2-(1′H,3H-Spiro[2-benzofuran-1,4′-piperidin]-1′-yl)-1-oxa-3-azaspiro[4.5]dec-2-en-4-one]", "Ki": 10}, {"smiles": "O=C1OC2(CCN(C3=NC(=O)C4(CCCCC4)O3)CC2)c2ccccc21", "note": "[Example 124, 1′-(4-Oxo-1-oxa-3-azaspiro[4.5]dec-2-en-2-yl)-3H-spiro[2-benzofuran-1,4′-piperidin]-3-one]", "Ki": 158}, {"smiles": "O=C1N=C(N2CCC3(CC2)OCc2ccccc23)OC12CCCOC2", "note": "(centres unmarked) [Example 125, 2-(1′H,3H-Spiro[2-benzofuran-1,4′-piperidin]-1′-yl)-1,7-dioxa-3-azaspiro[4.5]dec-2-en-4-one]", "Ki": 200}, {"smiles": "O=C1N=C(N2CCC3(CC2)OCc2ccccc23)OC12CCC(F)(F)CC2", "note": "[Example 130, 8,8-Difluoro-2-(1′H,3H-spiro[2-benzofuran-1,4′-piperidin]-1′-yl)-1-oxa-3-azaspiro[4.5]dec-2-en-4-one]", "Ki": 6.31}, {"smiles": "O=C1OC2(CCN(C3=NC(=O)C4(CCC(F)(F)CC4)O3)CC2)c2ccccc21", "note": "[Example 131, 1′-(8,8-Difluoro-4-oxo-1-oxa-3-azaspiro[4.5]dec-2-en-2-yl)-3H-spiro[2-benzofuran-1,4′-piperidin]-3-one]", "Ki": 50.1}, {"smiles": "O=C1N=C(N2CCC3(CC2)OCc2ccccc23)OC12CCSCC2", "note": "[Example 132, 2-(1′H,3H-Spiro[2-benzofuran-1,4′-piperidin]-1′-yl)-1-oxa-8-thia-3-azaspiro[4.5]dec-2-en-4-one]", "Ki": 15.8}, {"smiles": "O=C1N=C(N2CCC3(CC2)OCc2ccccc23)OC12CCS(=O)(=O)CC2", "note": "[Example 133, 2-(1′H,3H-Spiro[2-benzofuran-1,4′-piperidin]-1′-yl)-1-oxa-8-thia-3-azaspiro[4.5]dec-2-en-4-one 8,8-dioxide]", "Ki": 126}, {"smiles": "CC(C)(C)OC(=O)N1CCC2(CC1)OC(N1CCC3(CC1)OCc1ccccc13)=NC2=O", "note": "[Example 134, tert-Butyl 4-oxo-2-(1′H,3H-spiro[2-benzofuran-1,4′-piperidin]-1′-yl)-1-oxa-3,8-diazaspiro[4.5]dec-2-ene-8-carboxylate]", "Ki": 158}, {"smiles": "O=C1N=C(N2CCC3(CC2)OCc2ccccc23)OC12CCN(Cc1ccccc1)CC2", "note": "[Example 135, 8-Benzyl-2-(1′H,3H-spiro[2-benzofuran-1,4′-piperidin]-1′-yl)-1-oxa-3,8-diazaspiro[4.5]dec-2-en-4-one]", "Ki": 398}, {"smiles": "O=C1N=C(N2CCC3(CC2)OCc2ccccc23)OC12CCN(CC(F)F)CC2", "note": "[Example 136, 8-(2,2-Difluoroethyl)-2-(1′H,3H-spiro[2-benzofuran-1,4′-piperidin]-1′-yl)-1-oxa-3,8-diazaspiro[4.5]dec-2-en-4-one]", "Ki": 316}, {"smiles": "CC(C)(C)OC(=O)N1Cc2ccccc2CC2(C1)OC(N1CCC3(CC1)OCc1ccccc13)=NC2=O", "note": "(centres unmarked) [Example 137, tert-Butyl 4′-oxo-2′-(1′H,3H-spiro[2-benzofuran-1,4′-piperidin]-1′-yl)-1,5-dihydro-4′H-spiro[2-benzazepine-4,5′-[1,3]oxazole]-2(3H)-carboxylate]", "Ki": 1.58}, {"smiles": "O=C1N=C(N2CCC3(CC2)OCc2ccccc23)OC12CNCc1ccccc1C2", "note": "(centres unmarked) [Example 138, 2′-(1′H,3H-Spiro[2-benzofuran-1,4′-piperidin]-1′-yl)-1,2,3,5-tetrahydro-4′H-spiro[2-benzazepine-4,5′-[1,3]oxazol]-4′-one]", "Ki": 6.31}, {"smiles": "CN1Cc2ccccc2CC2(C1)OC(N1CCC3(CC1)OCc1ccccc13)=NC2=O", "note": "(centres unmarked) [Example 139, 2-Methyl-2′-(1′H,3H-spiro[2-benzofuran-1,4′-piperidin]-1′-yl)-1,2,3,5-tetrahydro-4′H-spiro[2-benzazepine-4,5′-[1,3]oxazol]-4′-one]", "Ki": 1.26}, {"smiles": "O=C1N=C(N2CCC3(CC2)OCc2ccccc23)OC12CC1CCCCCC1C2", "note": "(centres unmarked) [Example 140, 2′-(1′H,3H-Spiro[2-benzofuran-1,4′-piperidin]-1′-yl)-3,3a,4,5,6,7,8,8a-octahydro-1H,4′H-spiro[azulene-2,5′-[1,3]oxazol]-4′-one]", "Ki": 0.631}, {"smiles": "O=C1N=C(N2CCC3(CC2)OCc2ccccc23)O[C@]12C[C@H]1CCCC[C@H]1C2", "note": "[Example 141, 2′-(1′H,3H-Spiro[2-benzofuran-1,4′-piperidin]-1′-yl)-1,3,3a,4,5,6,7,7a-octahydro-4′H-spiro[indene-2,5′-[1,3]oxazol]-4′-one]", "Ki": 0.501}, {"smiles": "O=C1C=C2CC3(CC2C1)OC(N1CCC2(CC1)OCc1ccccc12)=NC3=O", "note": "(centres unmarked) [Example 142, 2-(1′H,3H-Spiro[2-benzofuran-1,4′-piperidin]-1′-yl)-3a′,4′-dihydro-1′H,4H-spiro[1,3-oxazole-5,2′-pentalene]-4,5′(3′H)-dione]", "Ki": 158}, {"smiles": "O=C1C[C@@H]2CC3(C[C@@H]2C1)OC(N1CCC2(CC1)OCc1ccccc12)=NC3=O", "note": "(some centres unmarked) [Example 143, 2-(1′H,3H-Spiro[2-benzofuran-1,4′-piperidin]-1′-yl)-3a′,4′,6′,6a′-tetrahydro-1′H,4H-spiro[1,3-oxazole-5,2′-pentalene]-4,5′(3′H)-dione]", "Ki": 100}, {"smiles": "O=C1N=C(N2CCC3(CC2)OCc2ccccc23)OC12C[C@H]1COC[C@H]1C2", "note": "(some centres unmarked) [Example 144, 2′-(1′H,3H-Spiro[2-benzofuran-1,4′-piperidin]-1′-yl)-3a,4,6,6a-tetrahydro-1H,3H,4′H-spiro[cyclopenta[c]furan-5,5′-[1,3]oxazol]-4′-one]", "Ki": 79.4}, {"smiles": "O=C1N=C(N2CCC3(CC2)OCc2ccccc23)O[C@]12C[C@H]1CC(F)(F)C[C@H]1C2", "note": "[Example 146, 5′,5′-Difluoro-2-(1′H,3H-spiro[2-benzofuran-1,4′-piperidin]-1′-yl)-3′,3a′,4′,5′,6′,6a′-hexahydro-1′H,4H-spiro[1,3-oxazole-5,2′-pentalen]-4-one]", "Ki": 3.98}, {"smiles": "O=C1N=C(N2CCC3(CC2)OCc2ccccc23)OC12C[C@@H]1OS(=O)O[C@@H]1C2", "note": "(some centres unmarked) [Example 147, 2′-(1′H,3H-Spiro[2-benzofuran-1,4′-piperidin]-1′-yl)-3a,4,6,6a-tetrahydro-4′H-spiro[cyclopenta[d][1,3,2]dioxathiole-5,5′-[1,3]oxazol]-4′-one 2-oxide]", "Ki": 158}, {"smiles": "O=C1N=C(N2CCC3(CC2)c2ccccc2CS3(=O)=O)OC12Cc1ccccc1C2", "note": "[Example 150, 2′-(2,2-Dioxido-1′H,3H-spiro[2-benzothiophene-1,4′-piperidin]-1′-yl)-1,3-dihydro-4′H-spiro[indene-2,5′-[1,3]oxazol]-4′-one]", "Ki": 0.251}]}]}
